Results reported in patent US20080226596A1, “Therapeutic compositions and methods useful in treating hepatitis” (priority 2006, published 2008).
Entries after “also recorded” stand apart in the source; their conditions may differ.

What was measured:
U251 cells = test: U251 glioma cell growth, MTT assay; format: cell-based, human; conditions: 100 μg/ml, day 6
Method: (§1) NIH3T3 (Yi, et al., Blood 85, 87 (1995)), WM9 (Forsberg, et al., Proc. Nat. Acad Sci. USA 90, 393 (1993)), DU145 (Mickey, et al., Cancer Res. 37, 4049 (1977)), LoVo (Drewinko, et al., Cancer Res. 36, 467 (1976)), HEY (Buick, et al., Cancer Res. 45, 3668 (1985)), U251 (Yoshida, et al., Cancer 50, 410 (1982)), A549 (Giard, et al., J. Natl. Cancer Inst. 51, 1417 (1973)) and SK-N-SH (Helson, et al., Cancer Res. 35, 2594 (1975)) cell lines have been described and were cultured in RPMI 1640 supplemented with 10% fetal calf serum (FCS). For measurement of sodium stibogluconate effects on cell growth in vitro, cells were cultured in the absence (−) or presence (+) of various amounts of sodium stibogluconate for 6 days with viable cells quantified by MTT assays (Mosmann, J. Immunol. Methods 65, 55 (1983)). Percentages of growth inhibition by sodium stibogluconate were calculated (.+−.x

Baf3 cells = test: Cellular protein tyrosine phosphorylation in Baf3 cells (Western blot); format: cell-based, murine; conditions: IL-3-deprived Baf3 cells
Method: (§2) For induction of cellular protein phosphorylation by sodium stibogluconate or pervanadate, Baf3 cells were incubated in 0.1% FCS-RPMI 1640 medium at 37° C. for 16 hours. The cells were then washed twice in RPMI 1640 medium and incubated with sodium stibogluconate or pervanandate (0.1 mM) for various times prior to termination by lysing cells in cold lysis buffer (50 mM Tris, pH 7.4; 150 mM NaCl; 0.2 mM Na3VO4; 20 mm NaF; 1% Nonidet P-40; 2 mM PMSF; 20 µg/ml of Aprotinin and 1 mM of sodium molybdic acid). To determine the effect of sodium stibogluconate or potassium antimonyl tartrate on IL-3-induced Jak/Stat phosphorylation, Baf3 cells were deprived of the growth factor for 16 hours in 0.1% FCS RPMI 1640 medium and then incubated with or without sodium stibogluconate or potassium antimonyl tartrate for 10 minutes. IL-3 was next added to the cell suspension and incubated for various times. The Cells were then harvested and lysed in cold lysis buffer at 4° C. for 45 minutes. Total cell lysates (TCL) were separated in SDS-PAGE gels, blotted onto nitrocellulose membrane (Schleicher & Schuell), probed with specific antibodies and detected using an enhanced chemiluminescence kit (ECL, Amersham, Arlington Heights, Ill.).

[1] = test system: Jak2/Stat5 tyrosine phosphorylation; test: IL-3-induced Jak2/Stat5 tyrosine phosphorylation in Baf3 cells; format: cell-based, murine
Method: as §2

PRL-3 = target: T1, PRL-3 (Homo sapiens, UniProt O75365); test: In vitro PTPase assay, recombinant PRL-3; format: biochemical; conditions: 10 μg/ml, pre-incubation 30 or 60 minutes
T1 construct: GST (N); made in house; host or cells: DHSa (DH5a) bacteria
T1 sequence (O75365 whole entry): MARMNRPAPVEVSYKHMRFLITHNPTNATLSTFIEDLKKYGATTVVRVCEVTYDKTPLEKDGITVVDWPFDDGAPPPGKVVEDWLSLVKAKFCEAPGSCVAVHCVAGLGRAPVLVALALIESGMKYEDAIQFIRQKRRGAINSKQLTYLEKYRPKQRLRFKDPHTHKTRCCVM
Source text: Sodium stibogluconate, suramin, sodium orthovanadate and GST fusion protein of SHP-1 have been described previously (Pathak et al., J. Imumol. 167, 3391 (2001)). Meglumine antimonate was obtained from Aventis. cDNAs of human PRL-1, PRL-2 and PRL-3 coding region were derived by RT-PCR from H9 cells (Safai, et al., Lancet 1, 1438 (1984)) and inserted in frame into the pGEX vector. cDNA of PRL-1R86 was generated by recombinant DNA technique using PRL-1 cDNA as template following established procedures (Jiao, et al., Mol. Cell. Biol. 16, 6985 (1996)). […]
In vitro PTPase assays were used to determine the effects of compounds on recombinant PTPases, following established procedures using a synthetic phosphotyrosine peptide or DiFMUP as the substrate (Pathak et al., J. Imumol. 167, 3391 (2001)). […] PTPase activity of individual reactions was measured by adding 100 µL of malachite green solution (UBI) and then quantifying the amounts of free phosphate cleaved by the PTPase from the peptide substrate by spectrometry (OD660 nm). […] Relative PTPase activities were calculated based on the formula: (PTPase activity in the presence of an inhibitory compound/PTPase activity in the absence of the compound)× 100%. […]

DU145 cells = test: DU145 prostate cancer cell growth, MTT assay; format: cell-based, human; conditions: single agent, 50-100 μg/ml, day 6
Method: For cell proliferation assays, cells were grown in 10% FCS culture medium containing various amounts of IFNs and/or sodium stibogluconate in 96 well plates and cultured at 37° C. for 3 or 6 days as indicated. The numbers of viable cells in proliferation assays were determined by MTT assays as described in Phatak et al., J. Immunol. 167, 3391 (2001).
as §1

**Q.** For `O.O.O.O.O.O.O.O.O.O=C([O-])[C@@H]1[O][Sb]2([O-])([O][Sb]34([OH])[O][C@H]([C@H](O)CO)[C@H]([O]3)[C@H](C(=O)[O-])[O]4)[O][C@H]([C@H](O)CO)[C@@H]1[O]2.[Na+].[Na+].[Na+]` [sodium stibogluconate], which “killing of U251 cells” value (U251 cells) is on record?
**A.** near-complete cell killing

**Q.** And the “cellular protein tyrosine phosphorylation” value (Baf3 cells)?
**A.** induced protein tyrosine phosphorylation

**Q.** And the “phosphotyrosine levels of Jak2 and Stat5 relative to cells without drug” value ([1]; IL-3 stimulated, drug 10 minutes before, densitometry)?
**A.** about twice

**Q.** And the “Jak2/Stat5 tyrosine phosphorylation by drug alone” value ([1]; no IL-3, 37 C 16 hours)?
**A.** failed to induce Jak2/Stat5 tyrosine phosphorylation

**Q.** What about the “inactivation of PRL-3” value (PRL-3) of the same molecule?
**A.** nearly complete inactivation

**Q.** What about the “killing of DU145 cells” value (DU145 cells) of the same molecule?
**A.** killed all cells; also recorded: complete or near complete killing; also recorded: near-complete cell killing
